Here are results for 1 compound from patent US20250025451A1, “TREATMENT OF CANCER WITH KDM4 INHIBITORS” (Celgene Corporation, priority 2021, published 2025).

pIC50: −log10 of the molar value. Where two headings read alike, the source gives them in different places.

In data set [1] the test system is KYSE-150 human esophageal cancer xenograft. The class given is in vivo. The conditions noted are these: for Median Tumor Volumes Day 19: KYSE-150 CDX Study #1, female NSG mice; for % TGI / Median Tumor Volumes Diff.: KYSE-150 Study #1; for % TGI: Day 19; for Median Tumor Volumes Diff.: Day 19 minus Day 1. As for the experimental part: The therapeutic in vivo efficacy of Compound 1 was evaluated in SU60 colorectal cancer, KYSE-150 esophageal cancer, COH70 triple-negative breast cancer, GXA-3036 gastric adenocarcinoma and OCI-LY19 Diffuse Large B-Cell Non-Hodgkin's Lymphoma xenograft models. In all studies, efficacy was determined based on percent tumor growth inhibition (TGI), differences in mean tumor growth, and statistical assessment of differences in net tumor volume distributions on the day of TGI analysis between control and treated animals. Tolerability was assessed based on differences in mean body weights between control and treated animals over the course of the study.
Study #1—The in vivo therapeutic efficacy and tolerability of Compound 1, administered orally as the lysine salt suspended in a vehicle comprised of 10% PEG 400 and 90% of 0.5% methylcellulose (MC), was evaluated in the KYSE-150 ESCC CDX model established in female NSG mice. As presented in Table 5, […] at 5, 15, or 50 mg/kg (free acid equivalents) administered on the 3 on/4 off schedule yielded dose-dependent TGIs of 19%, 50%, and 72%, respectively. […] As shown in FIG. 11 (left panel), tumor growth in the Compound 1-treated groups was reduced relative to control animals. The relative rates of tumor growth among the various Compound 1-treated groups were consistent with the TGI attained at study end. As presented in FIG. 11 (right panel), Compound 1 appeared well-tolerated with nominal mean body weight gains over the course of the study. Each mouse was inoculated subcutaneously in the right flank with 1×10^7 KYSE-150 tumor cells (0.1 ml) suspended in PBS. When the average tumor size reached ˜117 mm3, test animals were randomized into 4 groups consisting of 9 mice per group and treatments were initiated. Control mice received 10% PEG 400 and 90% of 0.5% MC vehicle PO 3 on/4 off. Treated mice received the Compound 1 lysine salt form suspended in vehicle at 5, 15, or 50 mg/kg on the same schedule. TGI was determined on Day 19 as (1−Difftreated/Diffcontrol)×100; The difference mean net tumor volumes on the day of TGI analysis for treated versus control animals was evaluated statistically using one-way ANOVA followed by Dunnett's multiple comparisons test; Adjusted p-values are shown where a calculated probability (p)≤0.05 was considered statistically significant. Individual tumors were measured twice weekly in three dimensions using a caliper, and the tumor volumes (TV) in mm3 were calculated using the formula: TV=0.5 (l×w×h), where l, w, and h are the tumor length, width, and height in mm, respectively; Mean tumor volumes SEM were calculated and plotted versus days of dosing (left panel). Body weights were measured twice weekly. Body weights±SEM were calculated and plotted versus days of dosing (right panel).

Data set [2] has as its system SU62 patient-derived colon cancer organoid model. Kind of data set: organoid colony formation assay, SU62. The class given is cell-based, human. As for the experimental part:
(§1) The IC50 values for Compound 1 inhibition of colony formation and viability were determined for the patient-derived colon cancer organoid models: SU60, T002C, SU62, SU34, SU103, T03SC, and SU106, patient-derived pancreatic cancer organoid models PA016SF, PA0143F, T016P, and T028P, and a patient-derived breast cancer organoid model FS5S3.
(§2) Colony formation and viability assays were performed in multiwell plates seeded with organoids using an in vitro culture system composed of a Matrigel layer, media containing a defined set of growth factors, and co-culture with Wnt3 A-secreting mouse embryonic fibroblasts. Assays were initiated by adding either DMSO as a negative control, or an inhibitor panobinostatat 100×IC50 concentration as a positive control, or serially diluted Compound 1. The cultures were incubated for 168 or 144 hours after which the number of viable organoids in each test well was assessed respectively using one of two detection methods: CTG or staining with calcein-AM followed by imaging and colony counting. Colony count or viability of cells treated with compound 1 was expressed as a percent of the negative control. Aggregated Percent of Control values were plotted against the corresponding Compound 1 concentration and the absolute IC50 value was determined from a non-linear regression curve as the concentration where inhibition was 50% of the control.

The subject of data set [3] is PA0143F patient-derived pancreatic cancer organoid model. Kind of data set: organoid colony formation assay, PA0143F. The class given is cell-based, human. The method, then: as §1, §2
Data set [4] relates to myeloid hematopoietic progenitor cells derived from human bone marrow. Kind of data set: myeloid colony formation of hematopoietic progenitor cells. The class given is cell-based. As for the experimental part: Compound 1 was evaluated for its effects on proliferation of erythroid and myeloid hematopoietic progenitor cells derived from human bone marrow at […] Technologies Inc. (Vancouver, BC, Canada).
Cells were thawed rapidly at 37° C. into DNAse I and then diluted in 10 mL of Iscove's Modified Dulbecco's medium containing 2% fetal bovine serum (IMDM+2% FBS) and washed by centrifugation (1200 rpm for 10 minutes at room temperature). The supernatant was discarded and the cell pellet resuspended in a known volume of IMDM+2% FBS. A nucleated cell count (3% glacial acetic acid) and viability assessment (trypan blue exclusive test) were performed.
Compound 1 and positive control (panobinostat) were diluted in DMSO and tested at concentrations ranging from 0.002 μM to 5 μM in final media. These dilutions provided the appropriate final test concentrations required for the test and control articles ([…], and 0.002 μM).
Test and control articles were incubated with human bone marrow hematopoietic progenitor cells. After 14 days, cell colonies were assessed.
To calculate the concentration of 50% and 90% inhibition of colony growth (IC50 and IC90) for each test article, a dose response curve was generated plotting the log of the test article concentration versus the percentage of control colony growth using GraphPad Prism. […] The IC50 and IC90 values for both test and control articles were derived from an interpolation of the curve fit. In cases where the IC50/90 value reported by GraphPad Prism is a value beyond the range of concentrations that were actually tested, if this value is more than 4 times the highest concentration tested, or where GraphPad Prism cannot calculate an IC50/90 value, notations of >5 μM (for test article compound 1) are used.

As usually defined, the pIC50 is the IC50 on a negative log10 scale, so that one unit is a factor of ten. What is called IC90 is the concentration needed for an effect of 90%. Lower therefore signals greater potency. By IC50 is commonly meant the concentration needed to halve the response being measured.

Regarding `CC(C)c1ccc(N(C)c2ccc3c(c2)OCC[C@H]3CNc2cnccc2C(=O)O)cc1` [Compound 1, 3-({[(4R)-7-{methyl[4-(propan-2-yl)phenyl]amino}-3,4-dihydro-2H-1-benzopyran-4-yl]methyl}amino)pyridine-4-carboxylic acid], the “Median Tumor Volumes Day 19” value in data set [1] (lysine salt 5 mg/kg (free acid equivalents) PO 3 on/4 off) is 824 mm^3; in data set [1] (lysine salt 15 mg/kg (free acid equivalents) PO 3 on/4 off), 569 mm^3; in data set [1] (lysine salt 50 mg/kg (free acid equivalents) PO 3 on/4 off), 359 mm^3. The “% TGI” value in data set [1] (5 mg/kg PO 3 on/4 off, 5 mg/kg) is reported as 19%; in data set [1] (5 mg/kg PO 3 on/4 off, listed as compound 4, 5 mg/kg), 19%; in data set [1] (15 mg/kg PO 3 on/4 off, 15 mg/kg), 50%; in data set [1] (15 mg/kg PO 3 on/4 off, listed as compound 4, 15 mg/kg), 50%; in data set [1] (50 mg/kg PO 3 on/4 off, 50 mg/kg), 72%; in data set [1] (50 mg/kg PO 3 on/4 off, listed as compound 4, 50 mg/kg), 72%. Besides, the entries for the “Median Tumor Volumes Diff.” value in data set [1] (5 mg/kg PO 3 on/4 off), in data set [1] (15 mg/kg PO 3 on/4 off) and in data set [1] (50 mg/kg PO 3 on/4 off) were 719 mm^3, 442 mm^3 and 250 mm^3, respectively. In addition, the pIC50 in data set [2] (Homo sapiens, SU62 colorectal carcinoma model) was above 6.82; in data set [2] (SU62 human colorectal carcinoma organoid, 144 hrs, Colony Counts), 6.83; in data set [3] (Homo sapiens, PA0143F pancreatic carcinoma model), below 5.00; in data set [3] (PA0143F human pancreatic carcinoma organoid, 144 hrs, Colony Counts) it was below 5.00; in data set [4] (336 h, human bone marrow progenitor cells, 14 days, read-out: IC50, inhibition of myeloid colony formation), below 5.30. Further, in data set [4] (336 h, human bone marrow progenitor cells, colony growth after 14 days), the IC90 is above 5 µg/mL. Also, in data set [4] (336 h, human bone marrow progenitor cells, colony growth after 14 days, read-out: Myeloid IC50), the IC50 is above 5 µg/mL. Besides, in data set [4] (myeloid derived colonies), the “concentrations at which colony morphology (size and density) was slightly compromised” value is at least 1.67 μM. In addition, the “effect on colony formation compared to 0.1% DMSO” value in data set [4] (progenitor cells from normal human bone marrow, p>0.01) is reported as “no significant effect”.
